# In PMC10584170, “Machine learning-based phenotypic imaging to characterise the targetable biology of Plasmodium falciparum male gametocytes for the development of transmission-blocking antimalarials” (PLOS Pathogens, 2023):
# Like-named read-outs stand apart in the source and are kept apart here.
# How the values were obtained:
# [1] = test system: P. falciparum female gametocytes; design: method as in Miguel-Blanco et al 2017; settings: ref Miguel-Blanco et al 2017; read-out: Pf female gametogenesis FGAA IC50; cited from earlier work
# HepG2 cells [2] = settings: cited from earlier work
# [3] = test system: P. falciparum female gametocytes; experiment: P. falciparum Dual Gamete Formation Assay (PfDGFA), female readout (Pfs25-positive female gametes); assay type: cell-based, Plasmodium falciparum NF54; settings: for Average inhibition female (%) / % inhibition female (individual replicates) R1 / % inhibition female (individual replicates) R3 / % inhibition female (individual replicates) R4 / inhibition at 2 µM: 24h preincubation with gametocytes; for Selectivity ratio F: HepG2 Tox50 versus female IC50
# Procedure, shortened: (§1)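 Read-outs are automated image counts of exflagellation centres (brightfield, 10 frames over 1 s) and Pfs25-positive female gametes (Cy3 fluorescence).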
# [4] = test system: P. falciparum male gametocytes; experiment: P. falciparum Dual Gamete Formation Assay (PfDGFA), male readout (exflagellation); assay type: cell-based, Plasmodium falciparum NF54; settings: for Average inhibition male (%) / % inhibition male (individual replicates) R1 / % inhibition male (individual replicates) R3 / % inhibition male (individual replicates) R4 / inhibition at 2 µM: 24h preincubation with gametocytes; for Selectivity Ratio M: HepG2 Tox50 versus male IC50
# Procedure, shortened: as §1
# HepG2 cells [5] = experiment: HepG2 cytotoxicity counter-screen; settings: for Tox50: cytotoxic activity against HepG2 cells
# [6] = PfDGFA, 24 h incubation with gametocytes before induction, female gamete readout, read-out: Female IC50
# [7] = PfDGFA, 24 h incubation with gametocytes before induction, exflagellation readout, read-out: Male IC50
# [8] = Plasmodium falciparum, 2µM, average of replicates, read-out: Average inhibition female (%)
# [9] = Plasmodium falciparum, 2µM, replicate R1, read-out: % inhibition female (individual replicates) R1
# [10] = Plasmodium falciparum, 2µM, replicate R2, read-out: % inhibition female (individual replicates) R2
# [11] = Plasmodium falciparum, 2µM, replicate R3, read-out: % inhibition female (individual replicates) R3
# [12] = Plasmodium falciparum, 2µM, replicate R4, read-out: % inhibition female (individual replicates) R4
# [13] = Plasmodium falciparum, PfDGFA, 24 h incubation with gametocytes before induction, female gamete readout, read-out: Female IC50
# [14] = Plasmodium falciparum, 2µM, average of replicates, read-out: Average inhibition male (%)
# [15] = Plasmodium falciparum, 2µM, replicate R1, read-out: % inhibition male (individual replicates) R1
# [16] = Plasmodium falciparum, 2µM, replicate R2, read-out: % inhibition male (individual replicates) R2
# [17] = Plasmodium falciparum, 2µM, replicate R4, read-out: % inhibition male (individual replicates) R4
# [18] = Plasmodium falciparum, PfDGFA, 24 h incubation with gametocytes before induction, exflagellation readout, read-out: Male IC50
# [19] = Plasmodium falciparum, 2µM, replicate R3, read-out: % inhibition male (individual replicates) R3
# [20] = PfDGFA at 2µM, average of replicates
SMILES,"IC50 [3, 6] [nM]","IC50 [4, 7] [nM]","IC50 [3, 13] [nM]","IC50 [4, 18] [nM]","Average inhibition female (%) ([3]; 2µM, average of replicates)","% inhibition female (individual replicates) R1 ([3]; 2µM, replicate R1) [%]","% inhibition female (individual replicates) R3 ([3]; 2µM, replicate R3) [%]","% inhibition female (individual replicates) R4 ([3]; 2µM, replicate R4) [%]",Selectivity ratio F [3],Selectivity Ratio M [4],Tox50 (HepG2 cells [5]) [µM],"inhibition at 2 µM [3, 8] [%]","inhibition at 2 µM [3, 9] [%]","inhibition at 2 µM [3, 10] [%]","inhibition at 2 µM [3, 11] [%]","inhibition at 2 µM [3, 12] [%]","inhibition at 2 µM [4, 14] [%]","inhibition at 2 µM [4, 15] [%]","inhibition at 2 µM [4, 16] [%]","inhibition at 2 µM [4, 17] [%]",further results
CC(C)(CN)c1nc(-c2ccc(Cl)c(O)c2)c(-c2ccncc2)[nH]1.Cl [TC61],,,,,,,,,,,,,,,,,,,,,"IC50 [1]: 940 nM; FGAA TOX50 HepG2 (HepG2 cells [2]): 2.16 µM; ODA TOX50 HepG2 (HepG2 cells [2]): 1.66 µM; IC50 ([3]; this study, read-out: Pf DGFA IC50 FEM): 270 nM; IC50 ([4]; this study, read-out: Pf DGFA IC50 MALE): 910 nM; Mean TOX (HepG2 cells [5]; mean of the HepG2 TOX50 values): 7.15 µM"
Cc1ccc(Cn2nc(Cl)c(N3CCNCC3)cc2=O)cc1NC(=O)Nc1ccc(-c2ccccc2)cc1.O=C(O)C(F)(F)F [TCMDC-141698],1120,1200,,,53.1,36.8,40.3,66.3,3.54,3.32,3.97,,,,,,,,,,"Average inhibition male (%) ([4]; 2µM, average of replicates): 96.8%; % inhibition male (individual replicates) R1 ([4]; 2µM, replicate R1): 94.1%; % inhibition male (individual replicates) R3 ([4]; 2µM, replicate R3): 94.5%; % inhibition male (individual replicates) R4 ([4]; 2µM, replicate R4): 100.9%"
Cc1c(Cn2nc(Cl)c(N3CCNCC3)cc2=O)cccc1NC(=O)Nc1ccc(-c2ccccc2)cc1.O=C(O)C(F)(F)F [TCMDC-141699],560,580,,,53.7,31.7,37.6,62.1,2.15,2.05,1.2,,,,,,,,,,"Average inhibition male (%) ([4]; 2µM, average of replicates): 91.5%; % inhibition male (individual replicates) R1 ([4]; 2µM, replicate R1): 87.4%; % inhibition male (individual replicates) R3 ([4]; 2µM, replicate R3): 92.1%; % inhibition male (individual replicates) R4 ([4]; 2µM, replicate R4): 92.9%"
Cl.O=S(=O)(Nc1cc2c(cc1OCCCN1CCCCC1)CCNCC2)c1ccc(-c2ccc(Cl)cc2)cc1 [TCMDC-141753],4420,1220,,,56.2,37.1,44.2,65.5,1.62,5.89,7.17,,,,,,,,,,"Average inhibition male (%) ([4]; 2µM, average of replicates): 98.2%; % inhibition male (individual replicates) R1 ([4]; 2µM, replicate R1): 97.5%; % inhibition male (individual replicates) R3 ([4]; 2µM, replicate R3): 95.7%; % inhibition male (individual replicates) R4 ([4]; 2µM, replicate R4): 101.6%"
Cc1ccc(C)c(S(=O)(=O)NCC2CCN(Cc3ccc(O)cc3)CC2)c1.O=C(O)C(F)(F)F [TCMDC-141802],,,> 10000,1490,,,,,8.16,54.73,81.55,41.1,46.9,46.3,38,33.3,95.1,95.4,96.3,93.6,
Nc1nc(N)c2cc(NC(=O)c3ccc(Cl)c(Cl)c3)ccc2n1 [TCMDC-141982],2250,1150,,,81.8,88.2,90.4,80.2,1.06,2.06,2.38,,,,,,,,,,"Average inhibition male (%) ([4]; 2µM, average of replicates): 98.2%; % inhibition male (individual replicates) R1 ([4]; 2µM, replicate R1): 97.3%; % inhibition male (individual replicates) R3 ([4]; 2µM, replicate R3): 98.4%; % inhibition male (individual replicates) R4 ([4]; 2µM, replicate R4): 100.2%"
Cl.OC(CNCCCCCCNCC(O)c1ccc(Cl)c(Cl)c1)c1ccc(Cl)c(Cl)c1 (stereo not drawn) [TCMDC-141987],4930,1770,,,,,,,1.28,3.57,6.33,,,,,,,,,,"Average inhibition female (%) [3, 20]: 52.4%; % inhibition female (individual replicates) R1 ([3]; PfDGFA at 2µM, replicate R1): 44.0%; % inhibition female (individual replicates) R3 ([3]; PfDGFA at 2µM, replicate R3): 21.3%; % inhibition female (individual replicates) R4 ([3]; PfDGFA at 2µM, replicate R4): 69.1%; HitlevelF ([3]; number of replicates with >50% inhibition in the female readout, 2µM): 2; Average inhibition male (%) [4, 20]: 88.7%; % inhibition male (individual replicates) R1 ([4]; PfDGFA at 2µM, replicate R1): 92.2%; % inhibition male (individual replicates) R3 ([4]; PfDGFA at 2µM, replicate R3): 63.5%; % inhibition male (individual replicates) R4 ([4]; PfDGFA at 2µM, replicate R4): 102.2%; HitlevelM ([4]; number of replicates with >50% inhibition in the male readout, 2µM): 4"

# Further lines, with some results ahead:
"IC50 [3, 6] [nM]","IC50 [4, 7] [nM]","IC50 [3, 13] [nM]","IC50 [4, 18] [nM]",SMILES,"Average inhibition female (%) ([3]; 2µM, average of replicates)","% inhibition female (individual replicates) R1 ([3]; 2µM, replicate R1) [%]","% inhibition female (individual replicates) R3 ([3]; 2µM, replicate R3) [%]","% inhibition female (individual replicates) R4 ([3]; 2µM, replicate R4) [%]",Selectivity ratio F [3],Selectivity Ratio M [4],Tox50 (HepG2 cells [5]) [µM],"inhibition at 2 µM [3, 8] [%]","inhibition at 2 µM [3, 9] [%]","inhibition at 2 µM [3, 10] [%]","inhibition at 2 µM [3, 11] [%]","inhibition at 2 µM [3, 12] [%]","inhibition at 2 µM [4, 14] [%]","inhibition at 2 µM [4, 15] [%]","inhibition at 2 µM [4, 16] [%]","inhibition at 2 µM [4, 17] [%]",further results
,,260,240,O=C(O)CCSSc1cccc[n+]1[O-] [TCMDC-141973],,,,,117.36,128.35,30.9,42.8,28.9,62.6,43.7,35.9,97.3,98.9,96.8,92.9,"inhibition at 2 µM [4, 19]: 100%"
,,110,150,O=c1c(Br)ccccc1Br [TCMDC-142246],,,,,63.16,47.29,6.95,96.5,93.6,94.7,103,94.9,98.7,98.2,102,99.6,"inhibition at 2 µM [4, 19]: 94.6%"
,,400,160,Nc1cc(C=Cc2ccc([N+](=O)[O-])o2)nc2ccccc12 [TCMDC-142295],,,,,6.49,16.74,2.6,93.7,96.4,95.7,93.8,88.9,98.9,98.2,98.8,100,"inhibition at 2 µM [4, 19]: 98.4%"
,,1030,330,Nc1cc(C=Cc2ccc([N+](=O)[O-])s2)nc2ccccc12 [TCMDC-142296],,,,,1.71,5.37,1.76,80.5,71.6,88.4,72.1,89.8,100,99.9,101,102,"inhibition at 2 µM [4, 19]: 97.4%"
